Measured values reported in patent US20230190750A1, “METHODS OF TREATING AND PREVENTING CANCER DRUG RESISTANCE” (Genentech, Inc., priority 2014, published 2023).

What was measured:
Format in all cases: cell-based
CHL-1 melanoma cells = assay: Single and dual drug treatment, cell growth of CHL-1 melanoma cells; settings: growth observed on days 7, 14, 21, 28, 35
Protocol: FIG. 11.|A drug screen was performed on CHL-1 melanoma cells. The cells were treated with DMSO (control), GDC-0973 (i.e., cobimetinib), GDC-0032 (PI3K-Alpha Inhibitor), BFJ-398 (pan FGFR inhibitor), GDC-0973 and GDC-0032, or GDC-0973 and BGJ-398.
(§1) Experiments were performed on CHL-1 melanoma cells to determine the effect of single and dual drug treatment on cell growth (FIG. 11). The cells were treated with DMSO (control), GDC-0973, GDC-0032, BGJ398, GDC-0973 and GDC-0032, or GDC-0973 and BGJ398. Cell growth was observed on days 7, 14, 21, 28, and 35, or until the cells had reached near 100% confluency. […] In contrast, cells treated with the combination treatment of GDC-0973 and GDC-0032 or the combination of GDC-0973 and BGJ398 never reached confluency through day 35.

624 MEL cells = assay: Reactivation of MAPK and PI3K pathways by secreted growth factors in presence of PLX4032; settings: 5 μM PLX4032 24 hours, 50 ng/mL factor 10 minutes
Protocol: (§2) FIG. 1A-D.| Factors secreted by tumor cells and/or the tumor microenvironment contribute to drug resistance through activation of cell-surface receptors. […] D, Secreted growth factors which promote resistance to PLX4032 reactivate MAPK and PI3K pathways. Activation of MAPK by FGF2, MAPK and AKT by HGF and AKT by NRG1 and SCF are shown in 624 MEL cells in the presence of PLX4032. Treatments were 5 μM PLX4032 for 24 hours and 50 ng·mL FGF2, HGF, NRGB1, or SCF for 10 minutes.

[1] = test system: HER2+ breast cancer cell lines; assay: FGF2 rescue (drug resistance) in HER2+ breast cancer cell lines; settings: of 10 HER2+ breast cancer cell lines
Protocol: (§3) FIG. 5A-C.| Screen of 10 melanoma cell lines and 10 breast cancer lines was performed to determine the role of FGF signalling in drug resistance. […] C, Summary of FGF receptors, their subfamily, and their ligands.
(§4) FGF signalling and resistance was studied in 10 HER2+ breast cancer cell lines and in 10 B-raf mutant melanoma cell lines (FIG. 5). 7 of the 10 HER2+ breast cancer cell lines were rescued by FGF2 (FIG. 5A). 8 of the 10 B-raf […] were rescued by FGF2 (FIG. 5B). Subsequent analysis determined that 50-70% of the melanoma lines with the V600E mutation were rescued by FGF2 (n=30).

melanoma cell line = assay: Secreted factor screen for resistance to B-raf and MEK antagonists in melanoma cell lines
Protocol: as §2

[2] = test system: HER2+ breast cancer cells; assay: Immunoblot of HER2+ breast cancer cells exposed to FGF2 with or without lapatinib; settings: FGF2 50 ng/mL for 10 minutes or 24 hours, with or without lapatinib 2 μM
Protocol: FIG. 6A-B.| FGF2 reactivates key signalling pathways to promote resistance and stimulates sustained activation of downstream signaling. A, An immunoblot of cells exposed to FGF2 for 10 min compared to cells absent exposure. B, An immunoblot of cells exposed to FGF2 for 24 hrs compared to cells absent FGF2 exposure.
Furthermore, it was determined that FGF2 reactivates key signalling pathways to promote resistance (FIG. 6). This was shown in a cell assay wherein HER2+ breast cancer cells were exposed to FGF2 (50 ng/mL) for 10 minutes in the presence or absence of lapatinib (2 μM) (FIG. 6A). Similarly, an assay was performed wherein HER2+ breast cancer cells were exposed to FGF2 (50 ng/mL) for 24 hours in the presence or absence of lapatinib (2 μM) (FIG. 6B).

[3] = test system: B-raf mutant melanoma cell lines; assay: FGF2 rescue (drug resistance) in B-raf mutant melanoma cell lines
Protocol: as §3, §4

[4] = test system: HS 895.T normal skin fibroblast cells; assay: Single and dual drug treatment, cell growth of HS 895.T normal skin fibroblast cells; settings: growth observed on days 7, 14, 21, 28, 35
Protocol: FIG. 13.|A drug screen was performed on Hs 895.T normal skin fibroblast cells. The cells were treated with DMSO (control), GDC-0973 (i.e., cobimetinib), GDC-0032 (PI3K-Alpha Inhibitor), BFJ-398 (pan FGFR inhibitor), GDC-0973 and GDC-0032, or GDC-0973 and BGJ-398.
as §1, with “HS 895.T normal skin fibroblast” for “CHL-1 melanoma”, “13).” for “11).”, “The” for “In contrast,”, “GDC-0973, GDC-0032,” for “the combination treatment of”, “GDC-0032, and” for “GDC-0032 or the combination of”

[5] = test system: pERK in SK MEL 24 VemR cells; assay: Western blot of treated SK MEL 24 VemR cells; settings: GDC-0973 0.5 μM, BGJ398 1 μM, 24 hours
Protocol: FIG. 14.|Single resistant SK MEL 24 VemR (SK MEL 24 cells resistant to vemurafenib) were treated with vemurafenib (i.e., PLX4032), BGJ398, and/or cobimetinib (i.e., GDC-0973). The cells were then processed and the presence/absence of FGFR1, pAKT, pMEK, pERK, PARP, pBAD, BIM, and βactin (control) were detected by Western blot. A melanoma cell line was made that is resistant to vemurafenib (“SK MEL 24 VemR”). The SK MEL 24 VemR cells were treated with vemurafenib (PLX4032), BGJ398, GDC-0973, BGJ398 and GDC-0973, vemurafenib and BGJ398, vemurafenib and GDC-0973, or vemurafenib, BGJ398, and GDC-0973. In all treatment conditions, the concentration of vemurafenib was 5 μM, the concentration of BGJ398 was 1 μM, and the concentration of GDC-0973 was 0.5 μM. The exposure time for all treatments was 24 hours. The cells were then processed and FGFR1, pAKT, pMEK, pERK, PARP, pBAD, BIM, and P-actin were probed for using Western blot.

Row | Molecule | day by which cells reached confluency (CHL-1 melanoma cells) [days] | pathway activated in the presence of PLX4032 (624 MEL cells) | rescue of tumor cells from B-raf and MEK antagonists (melanoma cell line) | also measured
1 | Cc1nc(-c2cn3c(n2)-c2ccc(-c4cnn(C(C)(C)C(N)=O)c4)cc2OCC3)n(C(C)C)n1 [GDC-0032] | ≤ 7 | – | – | –
2 | SCF: secreted growth factor promoting resistance to PLX4032 | – | AKT | – | –
3 | FGF2: secreted growth factor, FGFR ligand, promotes resistance | – | MAPK | most broadly and potently | number of cell lines rescued by FGF2 [1]: 7; activation of downstream signalling [2]: stimulates sustained activation of downstream signalling; number of cell lines rescued by FGF2 ([3]; of 10 cell lines (FIG. 5B)): 8; melanoma lines with the V600E mutation rescued by FGF2 ([3]; subsequent analysis, n=30): 50-70%
4 | CCN1CCN(c2ccc(Nc3cc(N(C)C(=O)Nc4c(Cl)c(OC)cc(OC)c4Cl)ncn3)cc2)CC1 [BGJ398, 3-(2,6-Dichloro-3,5-dimethoxy-phenyl)-1-{6-[4-(4-ethyl-piperazin-1-yl)-phenylamino]-pyrimidin-4-yl}-1-methyl-urea] | ≤ 14 | – | – | day by which cells reached confluency [4]: ≤ 28 days
5 | O=C(c1ccc(F)c(F)c1Nc1ccc(I)cc1F)N1CC(O)([C@@H]2CCCCN2)C1 [GDC-0973, [3,4-Difluoro-2-(2-fluoro-4-iodo-phenylamino)-phenyl]-((S)-3-hydroxy-3-pi-peridin-2-yl-azetidin-1-yl)-methanone] | ≤ 28 | – | – | pERK levels (Western blot) [5]: lower pERK levels
6 | HGF: secreted growth factor promoting resistance to PLX4032 | – | MAPK and AKT | most broadly and potently | –
